Reference: the NIST ThermoML archive (doi:10.1016/j.tca.2011.07.006)
± gives the expanded uncertainty stated by the source.

Columns and labels:
[1] = Molar enthalpy of transition or fusion; settings: Crystal; DSC
[2] = Crystal; DTA

## CCn1cc[n+](C)c1.[Cl-].[Cl][Al]([Cl])[Cl] [1-ethyl-3-methyl-1H-imidazolium tetrachloroaluminate]
[1]
  Molar enthalpy of transition or fusion: 3.3 ± 0.167 kcal/mol
[2]
  Normal melting temperature: 6.5 ± 0.5 °C

## CCn1cc[n+](C)c1.[Cl-] [1-ethyl-3-methylimidazolium chloride]
[1]
  Molar enthalpy of transition or fusion: 3.61 ± 0.311 kcal/mol
[2]
  Normal melting temperature: 97.0 ± 0.5 °C
